Measured values reported in ChEMBL document CHEMBL1149491, “Novel tricyclic azepine derivatives: Biological evaluation of pyrimido[4,5-b]-1,4-benzoxazepines, thiazepines, and diazepines as inhibitors of the epidermal growth factor receptor tyrosine kinase” (Bioorg Med Chem Lett, 2006).

Experiments:
[1] = molecular target: T1, Epidermal growth factor receptor (Homo sapiens, UniProt P00533); experiment: Inhibition of EGFR measured as pGAT-biotin peptide phosphorylation in presence of 2.0 uM ATP by HTRF assay; assay type: functional
[2] = molecular target: T1, Epidermal growth factor receptor; experiment: Inhibition of EGFR autophosphorylation in DiFi cells by ELISA; assay type: functional, cell-based
[3] = molecular target: Vascular endothelial growth factor receptor 2 (Homo sapiens, UniProt P35968)
Sequence of Vascular endothelial growth factor receptor 2 (P35968 whole entry): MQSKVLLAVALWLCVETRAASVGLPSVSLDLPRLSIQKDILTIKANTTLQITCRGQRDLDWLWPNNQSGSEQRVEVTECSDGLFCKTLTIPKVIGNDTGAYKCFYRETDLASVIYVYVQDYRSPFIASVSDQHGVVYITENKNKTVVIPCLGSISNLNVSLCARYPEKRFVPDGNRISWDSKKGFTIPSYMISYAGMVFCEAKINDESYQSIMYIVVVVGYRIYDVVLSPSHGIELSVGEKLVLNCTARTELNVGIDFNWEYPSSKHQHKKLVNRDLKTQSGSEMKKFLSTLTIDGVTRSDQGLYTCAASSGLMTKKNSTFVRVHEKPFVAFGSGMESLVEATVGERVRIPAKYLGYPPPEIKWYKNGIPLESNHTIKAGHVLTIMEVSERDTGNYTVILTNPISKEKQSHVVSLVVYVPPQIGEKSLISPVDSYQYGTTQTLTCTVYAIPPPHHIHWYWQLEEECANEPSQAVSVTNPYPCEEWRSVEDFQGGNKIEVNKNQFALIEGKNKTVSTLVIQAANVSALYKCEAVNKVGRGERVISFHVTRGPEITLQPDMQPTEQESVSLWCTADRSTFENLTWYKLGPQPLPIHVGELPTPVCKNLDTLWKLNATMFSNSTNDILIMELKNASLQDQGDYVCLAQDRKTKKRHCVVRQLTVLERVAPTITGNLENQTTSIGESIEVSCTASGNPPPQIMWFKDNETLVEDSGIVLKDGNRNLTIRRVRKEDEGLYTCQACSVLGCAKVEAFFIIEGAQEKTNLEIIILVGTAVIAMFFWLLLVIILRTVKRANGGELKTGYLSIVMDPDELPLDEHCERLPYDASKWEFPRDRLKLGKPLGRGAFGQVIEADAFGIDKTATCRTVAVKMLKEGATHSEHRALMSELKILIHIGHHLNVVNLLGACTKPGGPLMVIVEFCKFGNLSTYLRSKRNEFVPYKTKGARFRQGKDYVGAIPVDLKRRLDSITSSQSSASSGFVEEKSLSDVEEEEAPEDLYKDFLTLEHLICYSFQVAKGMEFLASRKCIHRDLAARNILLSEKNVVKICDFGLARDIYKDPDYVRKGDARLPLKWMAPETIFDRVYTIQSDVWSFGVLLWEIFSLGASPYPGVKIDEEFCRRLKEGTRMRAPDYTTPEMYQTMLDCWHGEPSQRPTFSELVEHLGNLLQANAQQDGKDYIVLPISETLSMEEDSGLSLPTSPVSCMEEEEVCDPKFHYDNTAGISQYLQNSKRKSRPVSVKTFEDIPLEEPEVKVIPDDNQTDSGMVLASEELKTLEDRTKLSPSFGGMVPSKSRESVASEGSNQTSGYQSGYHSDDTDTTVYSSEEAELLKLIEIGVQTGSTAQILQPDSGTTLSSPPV
Description: Inhibition of KDR measured as pGAT-biotin peptide phosphorylation by HTRF assay

T1 sequence (P00533 whole entry): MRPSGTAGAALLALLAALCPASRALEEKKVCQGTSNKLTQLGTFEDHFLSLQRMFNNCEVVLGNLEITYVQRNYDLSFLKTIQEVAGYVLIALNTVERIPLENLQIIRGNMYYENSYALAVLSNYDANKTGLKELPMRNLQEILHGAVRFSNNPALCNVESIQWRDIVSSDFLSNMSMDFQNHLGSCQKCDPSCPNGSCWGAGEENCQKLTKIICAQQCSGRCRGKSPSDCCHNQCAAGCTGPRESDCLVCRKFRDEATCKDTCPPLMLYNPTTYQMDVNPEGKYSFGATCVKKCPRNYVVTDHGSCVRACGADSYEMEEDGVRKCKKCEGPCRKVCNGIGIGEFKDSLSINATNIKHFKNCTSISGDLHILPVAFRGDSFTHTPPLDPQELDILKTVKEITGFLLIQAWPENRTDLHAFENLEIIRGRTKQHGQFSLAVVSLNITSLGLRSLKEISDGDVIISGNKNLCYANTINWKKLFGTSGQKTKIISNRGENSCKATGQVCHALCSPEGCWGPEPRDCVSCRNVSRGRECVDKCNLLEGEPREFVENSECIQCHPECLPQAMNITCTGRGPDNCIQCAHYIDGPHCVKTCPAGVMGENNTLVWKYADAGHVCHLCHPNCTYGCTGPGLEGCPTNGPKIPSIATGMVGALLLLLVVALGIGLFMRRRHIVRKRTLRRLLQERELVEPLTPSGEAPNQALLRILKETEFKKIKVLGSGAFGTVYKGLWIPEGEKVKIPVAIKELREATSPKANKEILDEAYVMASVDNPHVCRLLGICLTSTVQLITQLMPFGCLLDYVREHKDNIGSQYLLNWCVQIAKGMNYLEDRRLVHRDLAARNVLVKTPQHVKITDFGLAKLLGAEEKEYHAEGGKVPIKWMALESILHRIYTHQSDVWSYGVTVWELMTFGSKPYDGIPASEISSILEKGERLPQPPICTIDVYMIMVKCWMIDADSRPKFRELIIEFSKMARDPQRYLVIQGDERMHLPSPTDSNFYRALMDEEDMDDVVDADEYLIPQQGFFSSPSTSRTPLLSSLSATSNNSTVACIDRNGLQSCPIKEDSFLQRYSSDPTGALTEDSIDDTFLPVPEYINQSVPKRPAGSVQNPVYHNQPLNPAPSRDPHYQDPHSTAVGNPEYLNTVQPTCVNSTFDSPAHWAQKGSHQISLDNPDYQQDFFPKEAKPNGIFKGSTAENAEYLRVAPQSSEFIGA

| SMILES | IC50 [1] [µM] | IC50 [2] [µM] | IC50 [3] [µM] |
| --- | --- | --- | --- |
| COc1cc2c(cc1OC)Oc1ncnc(Sc3cccc(Br)c3)c1NC2 | 1.3 | 1.2 | > 10 |
| COc1cc2c(cc1OC)Sc1ncnc(Nc3cccc(Br)c3)c1NC2 | 5.9 | – | – |
| COc1cc2c(cc1OC)Sc1ncnc(Oc3cccc(Br)c3)c1NC2 | 21.7 | – | – |
| COc1cc2c(cc1OC)Oc1ncnc(Oc3ccc(F)c(Cl)c3)c1N(C)C2 | 10.8 | – | > 10 |
| COc1cc2c(cc1OC)Oc1ncnc(Nc3cccc(Cl)c3F)c1NC2 | 0.3 | 4.6 | – |
| COc1cc2c(cc1OC)Oc1ncnc(Nc3ccc(Br)cc3)c1NC2 | 8.7 | > 100 | > 10 |
| COc1cc2c(cc1OC)Sc1ncnc(Nc3ccc4c[nH]nc4c3)c1NC2 | 14.1 | – | – |
| C#Cc1cccc(Nc2ncnc3c2NCc2cc(OC)c(OC)cc2O3)c1 | 3.2 | 0.9 | – |
| COc1cc2c(cc1OC)Sc1nc(C)nc(Nc3ccc(C)c(Br)c3)c1NC2 | > 100 | – | – |
| COc1cc2c(cc1OC)Sc1nc(C)nc(Nc3ccc(Cl)c(C)c3)c1NC2 | > 100 | – | – |
| COc1cc2c(cc1OC)Oc1ncnc(Nc3ccc(F)cc3)c1NC2 | 7.1 | 7.6 | > 10 |
| COc1cc2c(cc1OC)Nc1ncnc(NCc3ccc(F)c(Cl)c3)c1NC2 | 0.3 | 1.6 | 2 |
| COc1cc2c(cc1OC)Sc1nc(C)nc(Nc3ccc4c[nH]nc4c3)c1NC2 | 24.6 | – | – |
| COc1cc2c(cc1OC)Oc1ncnc(Oc3cccc(Br)c3)c1N(C)C2 | 1.2 | 6.1 | – |
| COc1cc2c(cc1OC)Sc1nc(C)nc(Nc3ccc4[nH]cnc4c3)c1NC2 | 14.5 | – | – |
| COc1cc2c(cc1OC)Sc1ncnc(Nc3cccc(Cl)c3F)c1NC2 | 62.9 | – | – |
| COc1cc2c(cc1OC)Sc1ncnc(Sc3cccc(Cl)c3)c1NC2 | 2.9 | – | – |
| COc1cc2c(cc1OC)Sc1ncnc(Nc3ccc(F)c(Cl)c3)c1NC2 | 8.2 | – | – |
| COc1cc2c(cc1OC)Sc1nc(C)nc(Nc3cccc(Cl)c3F)c1NC2 | > 100 | – | – |
| COc1cc2c(cc1OC)Nc1ncnc(NCc3ccccc3)c1NC2 | 0.2 | 0.9 | 2 |
| COc1cc2c(cc1OC)Oc1ncnc(Oc3cccc(Cl)c3F)c1NC2 | 4.6 | – | – |
| COc1cc2c(cc1OC)Oc1ncnc(Nc3ccc4c[nH]nc4c3)c1NC2 | 1.2 | – | > 10 |

| SMILES | IC50 [1] [µM] | IC50 [2] [µM] | IC50 [3] [µM] |
| --- | --- | --- | --- |
| COc1cc2c(cc1OC)Oc1ncnc(Nc3cccc(C)c3)c1NC2 | 7.4 | 4.4 | > 10 |
| COc1cc2c(cc1OC)Oc1ncnc(Nc3ccc4ccccc4c3)c1NC2 | 0.5 | 2.3 | > 10 |
| COc1cc2c(cc1OC)Oc1ncnc(Sc3cccc(Cl)c3)c1NC2 | 1 | 2.4 | > 10 |
| COc1cc2c(cc1OC)Sc1ncnc(Oc3cccc(Cl)c3F)c1NC2 | 19.3 | – | – |
| COc1cc2c(cc1OC)Oc1ncnc(Oc3cccc(Br)c3)c1NC2 | 0.7 | 1.8 | > 10 |
| COc1cc2c(cc1OC)Sc1nc(C)nc(Nc3ccc4c(c3)CN=N4)c1NC2 | 16.2 | – | – |
| COc1cc2c(cc1OC)Oc1ncnc(Nc3cccc(Br)c3)c1NC2 | 0.3 | 0.5 | > 10 |
| COc1cc2c(cc1OC)Oc1ncnc(Nc3cc(Cl)ccc3F)c1NC2 | 1.1 | 3.9 | – |
| COc1cc2c(cc1OC)Sc1nc(C)nc(Nc3cccc(Br)c3)c1NC2 | 30.7 | – | – |
| COc1cc2c(cc1OC)Sc1ncnc(Nc3ccc4ncsc4c3)c1NC2 | > 100 | – | – |
| COc1cc2c(cc1OC)Oc1ncnc(Nc3ccc4ncsc4c3)c1NC2 | 5.6 | – | > 10 |
| COc1cc2c(cc1OC)Oc1nc(C)nc(Nc3cccc(Cl)c3F)c1NC2 | > 100 | – | > 10 |
| COc1cc2c(cc1OC)Sc1ncnc(Sc3cccc(Br)c3)c1NC2 | 1.6 | – | – |
| COc1cc2c(cc1OC)Sc1nc(C)nc(Nc3ccc4ccccc4c3)c1NC2 | 17 | – | – |
| COc1cc2c(cc1OC)Oc1ncnc(Nc3ccc(F)c(Cl)c3)c1NC2 | – | 0.7 | – |
| COc1cc2c(cc1OC)Sc1ncnc(N(C)c3cccc(Cl)c3)c1NC2 | 27 | – | – |
| COc1cccc(CNc2ncnc3c2NCc2cc(OC)c(OC)cc2N3)c1 | 0.8 | 11.7 | 2 |
| COc1cc2c(cc1OC)Sc1ncnc(N(C)c3cccc(Br)c3)c1NC2 | > 100 | – | – |
| COc1cc2c(cc1OC)Sc1nc(C)nc(Nc3ccc(F)c(Cl)c3)c1NC2 | 45.9 | – | – |
| COc1cc2c(cc1OC)Sc1nc(C)nc(Nc3ccc4ncsc4c3)c1NC2 | 15.2 | – | – |
| COc1cc2c(cc1OC)Nc1ncnc(Nc3cccc(Br)c3)c1NC2 | 1.5 | – | – |
| COc1cc2c(cc1OC)Nc1ncnc(N[C@H](C)c3ccccc3)c1NC2 | 0.15 | 0.5 | 2 |
